Among the test systems are MOLT-4 leukemia; LOX IMVI melanoma; SN12C renal; MCF7 breast; MDA-MB-231 breast; UACC-257 melanoma; EKVX NSCLC; OVCAR-3 ovarian; HCT-116 colon; U251 CNS; NCI/ADR-RES ovarian; CAKI-1 renal; TK-10 renal; MDA-N; SK-OV-3 ovarian; SR leukemia; CCRF-CEM leukemia; HOP-62 NSCLC.
What all share (experiment): growth of human tumour cells (NCI), 48 h

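Tested at 5 concentrations; 48 h exposure; 96-well plates; endpoints linearly interpolated, else capped at highest concentration. The concentration for 50% growth inhibition is given as GI50. TGI: concentration producing complete growth inhibition.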

For the molecule `Cc1cc(NS(=O)(=O)c2ccc(NC(=O)c3ccc4[nH]c5ccccc5c(=O)c4c3)cc2)no1`, the TGI in the experiment on MOLT-4 leukemia, in the experiment with LOX IMVI melanoma, with SN12C renal, in the experiment with MCF7 breast, in the experiment on MDA-MB-231 breast and with UACC-257 melanoma was greater than 100 µM in each case. Moreover, the TGI in the experiment on EKVX NSCLC, with OVCAR-3 ovarian, with HCT-116 colon, in the experiment on U251 CNS, with NCI/ADR-RES ovarian and in the experiment with CAKI-1 renal was greater than 100 µM throughout. Further, the TGI in the experiment with TK-10 renal, in the experiment on MDA-N, in the experiment with SK-OV-3 ovarian, with SR leukemia, in the experiment with CCRF-CEM leukemia and in the experiment with HOP-62 NSCLC was greater than 100 µM in each case.

On to `CCCCCCNC(=O)c1cc(CCc2cc(O)ccc2O)ccc1O`, for which the TGI with MOLT-4 leukemia was greater than 24.5 µM; with LOX IMVI melanoma it was 19.3 µM; in the experiment on SN12C renal it was 5.77 µM; in the experiment on MCF7 breast, 12.4 µM; in the experiment on MDA-MB-231 breast, 5.8 µM; in the experiment with UACC-257 melanoma, 6.26 µM. Moreover, the TGI in the experiment on EKVX NSCLC was 15.8 µM; in the experiment on OVCAR-3 ovarian it was 5.94 µM; in the experiment with HCT-116 colon, 13.6 µM; in the experiment on U251 CNS, 5.58 µM; in the experiment on NCI/ADR-RES ovarian it was greater than 67.7 µM; with CAKI-1 renal, 13.6 µM. The TGI in the experiment with TK-10 renal is 9.15 µM; in the experiment with MDA-N it was 9.54 µM; in the experiment on SK-OV-3 ovarian, 25 µM; with SR leukemia, greater than 29 µM; with CCRF-CEM leukemia, greater than 100 µM; in the experiment with HOP-62 NSCLC it was 25 µM. Moreover, the figures for the GI50 in the experiment with SN12C renal and with HCT-116 colon were 2.18 µM and 3.59 µM, respectively.

Turning to `Cc1cc2c(cc1Cl)SC(c1ccccc1)C(=O)NS2(=O)=O` (configuration not stated), the TGI in the experiment on MOLT-4 leukemia is 60.7 µM; with LOX IMVI melanoma it was greater than 100 µM; in the experiment with MCF7 breast, greater than 100 µM; in the experiment on MDA-MB-231 breast it was greater than 100 µM; in the experiment with UACC-257 melanoma it was 88.5 µM; in the experiment on EKVX NSCLC it was greater than 100 µM. Moreover, the TGI in the experiment with OVCAR-3 ovarian is 53.4 µM; with HCT-116 colon, 45.6 µM; with U251 CNS, 60.5 µM; with NCI/ADR-RES ovarian, 91.9 µM; in the experiment on CAKI-1 renal, greater than 100 µM; in the experiment with TK-10 renal, greater than 100 µM. Besides, the TGI in the experiment with MDA-N is greater than 100 µM; with SK-OV-3 ovarian it was greater than 100 µM; with SR leukemia, 73.8 µM; with CCRF-CEM leukemia, greater than 100 µM; in the experiment with HOP-62 NSCLC it was greater than 100 µM.

For the molecule `O=C1CCCC2C(O)CCC[C@H]12` (some centres not stated), the TGI in the experiment on MOLT-4 leukemia, with LOX IMVI melanoma, with SN12C renal, with MCF7 breast, in the experiment on MDA-MB-231 breast and in the experiment on UACC-257 melanoma was greater than 100 µM each time. For the same molecule, the TGI in the experiment with EKVX NSCLC, with HCT-116 colon, with U251 CNS, in the experiment on NCI/ADR-RES ovarian, with CAKI-1 renal and in the experiment with TK-10 renal was greater than 100 µM in each case. Also, the TGI with MDA-N, in the experiment with SK-OV-3 ovarian, in the experiment on SR leukemia, with CCRF-CEM leukemia and with HOP-62 NSCLC was greater than 100 µM throughout.

In the case of `C=CCOC(=O)Cn1cc(C)c(=O)[nH]c1=O`, the TGI in the experiment on MOLT-4 leukemia, in the experiment with LOX IMVI melanoma, in the experiment on SN12C renal, in the experiment with MCF7 breast, in the experiment with MDA-MB-231 breast and in the experiment on UACC-257 melanoma was greater than 100 µM each time. For the same molecule, the TGI with EKVX NSCLC, in the experiment on HCT-116 colon, in the experiment on U251 CNS, in the experiment on NCI/ADR-RES ovarian, with CAKI-1 renal and in the experiment on TK-10 renal was greater than 100 µM in each case. The TGI in the experiment with MDA-N, with SK-OV-3 ovarian, with SR leukemia, in the experiment with CCRF-CEM leukemia and with HOP-62 NSCLC was greater than 100 µM throughout.

With `CN(C)c1ccc(/C=C(\NC(=O)c2ccccc2)C(=O)NCC(=O)O)cc1`, the TGI in the experiment on MOLT-4 leukemia, in the experiment on LOX IMVI melanoma, in the experiment on SN12C renal, with MCF7 breast, in the experiment with MDA-MB-231 breast and with UACC-257 melanoma was greater than 100 µM each time. Also, the TGI in the experiment with EKVX NSCLC, in the experiment on OVCAR-3 ovarian, with HCT-116 colon, in the experiment on U251 CNS, in the experiment on NCI/ADR-RES ovarian and in the experiment on CAKI-1 renal was greater than 100 µM in each case. Further, the TGI in the experiment on MDA-N, in the experiment with SK-OV-3 ovarian, in the experiment with SR leukemia, with CCRF-CEM leukemia and with HOP-62 NSCLC was greater than 100 µM in each case.

Take `O=c1[nH]c2ccc(Cl)cc2c2oc(-c3ccccc3)nc12`: the TGI is greater than 100 µM with MOLT-4 leukemia; greater than 100 µM with LOX IMVI melanoma; 41.8 µM with SN12C renal; greater than 100 µM in the experiment with MCF7 breast; 43.4 µM in the experiment on MDA-MB-231 breast; greater than 100 µM in the experiment on UACC-257 melanoma. Besides, the TGI in the experiment with EKVX NSCLC was found to be 89.8 µM; in the experiment with OVCAR-3 ovarian, 46.6 µM; with HCT-116 colon it was 32.8 µM; in the experiment on U251 CNS it was 36.8 µM; in the experiment on NCI/ADR-RES ovarian it was 86.6 µM; in the experiment with CAKI-1 renal, 39.7 µM. Besides, the TGI with TK-10 renal is 80.7 µM; with MDA-N, greater than 100 µM; with SK-OV-3 ovarian it was 44.1 µM; in the experiment on SR leukemia it was 62.3 µM; in the experiment on CCRF-CEM leukemia it was greater than 100 µM; with HOP-62 NSCLC it was 43.6 µM.

With `S=C1Cc2c(-c3ccc(Cl)cc3)cc(-c3ccccc3)nc2-c2ccccc2N1`, the TGI in the experiment with MOLT-4 leukemia was greater than 100 µM; in the experiment with LOX IMVI melanoma, 35.2 µM; in the experiment on SN12C renal, 31.3 µM; with MCF7 breast it was greater than 100 µM; in the experiment with MDA-MB-231 breast, 23.8 µM; in the experiment with UACC-257 melanoma it was 36.1 µM. In addition, the TGI in the experiment with EKVX NSCLC is 54.9 µM; with OVCAR-3 ovarian, 29.8 µM; in the experiment with HCT-116 colon, 28.8 µM; with U251 CNS, greater than 100 µM; in the experiment on NCI/ADR-RES ovarian, 48.6 µM; in the experiment on CAKI-1 renal it was 13.1 µM. The TGI with TK-10 renal was 30.2 µM; with MDA-N, 30.4 µM; in the experiment on SK-OV-3 ovarian it was 25.7 µM; with SR leukemia, greater than 100 µM; with CCRF-CEM leukemia, greater than 100 µM; in the experiment on HOP-62 NSCLC, 24.1 µM.

The values above are taken from PubChem BioAssay (NCI).
